In brackets after ≈: the same amount, converted by molar mass. Like-named read-outs stand apart in the source and are kept apart here. Blank lines part the entries; values can stand above or below the compound they belong to.
Assays:
[1] = Experimental: The in vitro flux of piroxicam was measured from ethanol/buffer vehicles containing 0.25% v/v (0.224% w/v) cis-9-octadecenoic acid (oleic acid). The buffer employed was Sorensen's Buffer, pH 7.3-7.4^3, all experiments were carried out at 32° C. […] Buffer only was introduced into the chamber (receiver) in contact with the internal side of the skin. The donor chamber, in contact with the outer side of the skin was filled with the appropriate ethanol/buffer vehicle containing 0.25% v/v cis-9-octadecenoic acid (oleic acid) and an excess of piroxicam.
[2] = Lipid transition temperature of porcine stratum corneum by DSC in vehicles containing oleic acid; conditions: concentration dependent
Experimental: Stratum corneum sheets were prepared from porcine skin by trypsin treatment. Thus, full thickness porcine skin samples were dermatomed to 350 μm thickness and spread, stratum corneum side up, on filter paper saturated with 0.5% crude trypsin in phosphate buffered saline at pH 7.4 (Sorensen's buffer). After several hours at 37° C. the stratum corneum was peeled away, washed in soybean trypsin inhibitor, water and air dried. Samples were stored desiccated at room temperature until used. Prior to use, […] fatty acid in ethanol, the samples were then washed for ten seconds in ethanol, spread on wire mesh, dried over a desiccant and the dry sample reweighed. The stratum corneum samples were then held for several days in a chamber at 22° C., 95% relative humidity, during which the stratum corneum samples equilibrated to a water content of 30% (w/w).
(§1) The differential scanning calorimeter^5 was used at a scan rate of 0.75° C./minute. Duplicate samples from each of the above FTIR experiments were combined for DSC measurements. Alternately, stratum corneum samples of known weight (about 20 mg) were treated with each fatty acid in the same manner described above. Treated samples were hydrated for several days at 95% R.H., 22° C. and reweighed.

physchem = conditions: […] oleic acid, organic solvent or mixture
[3] = Differential scanning calorimetry of fatty acid treated porcine stratum corneum; conditions: stratum corneum treated with […] fatty acid in ethanol, 30% (w/w) water
Experimental: Stratum corneum sheets were prepared from porcine skin by trypsin treatment. Thus, full thickness porcine skin samples were dermatomed to 350 μm thickness and spread, stratum corneum side up, on filter paper saturated with 0.5% crude trypsin in phosphate buffered saline at pH 7.4 (Sorensen's buffer). After several hours at 37° C. the stratum corneum was peeled away, washed in soybean trypsin inhibitor, water and air dried. Samples were stored desiccated at room temperature until used. Prior to use, dry skin samples of known weight were incubated for two hours in an 0.15M solution of the appropriate fatty acid in ethanol, the samples were then washed for ten seconds in ethanol, spread on wire mesh, dried over a desiccant and the dry sample reweighed. The stratum corneum samples were then held for several days in a chamber at 22° C., 95% relative humidity, during which the stratum corneum samples equilibrated to a water content of 30% (w/w).
as §1

[4] = format: in vitro ADME, porcine
Experimental: Samples were removed periodically from the receiver side of the diffusion cell, mixed with a Z0 scintillation cocktail (Scintisol, Isolabs, Inc., Akron, OH) and counted for several minutes in a liquid scintillation counter (Model Mark III-6881, Tracor Analytical, Elk Grove Village, IL). Following an initial lag time of about 6 hours, the amount of
salicylic acid appearing in the receiver side was linear with time for the duration of the experiment (routinely 24 to 48 hours). […] This value, when divided by the specific acitivity of salicyclic acid in the saturated solution (approximately 300 dpm/mg) and the area of exposed skin (0.2 cm^2), yielded the flux (mg/cm^2/ hr). Samples removed from the donor side at the beginning and end of the experiment contained, within error, the same amount of salicylic acid. Thus, constant concentration of the permeant was maintained on the donor side throughout the experiment.

Relative Flux ([1]; 0/100 v/v ethanol/buffer, […] v/v oleic acid (reference)): 1.0
Relative Flux ([1]; 20/80 v/v ethanol/buffer, […] v/v oleic acid, relative to 0/100 ethanol/buffer): 1.5
Relative Flux ([1]; 30/70 v/v ethanol/buffer, […] v/v oleic acid, relative to 0/100 ethanol/buffer): 1.8
Relative Flux ([1]; 40/60 v/v ethanol/buffer, […] v/v oleic acid, relative to 0/100 ethanol/buffer): 3.5
Relative Flux ([1]; 50/50 v/v ethanol/buffer, […] v/v oleic acid, relative to 0/100 ethanol/buffer): 5
Relative Flux ([1]; 60/40 v/v ethanol/buffer, […] v/v oleic acid, relative to 0/100 ethanol/buffer): 4.5
Relative Flux ([1]; 70/30 v/v ethanol/buffer, […] v/v oleic acid, relative to 0/100 ethanol/buffer): 4.5
Relative Flux ([1]; 100/0 v/v ethanol/buffer, […] v/v oleic acid, relative to 0/100 ethanol/buffer): 4.5
Structure (SMILES): CC(C)Cc1ccc(C(C)C(=O)O)cc1 (stereo not shown) [Ibuprofen, 2-(4-isobutylphenyl)propionic acid]

Structure (SMILES): NC(CO)(CO)CO [Tris]
effect on oleic acid's action on stratum corneum lipids [2]: reduces the effect of oleic acid on stratum corneum lipids

Structure (SMILES): CN1C(C(=O)Nc2ccccn2)=C(O)c2ccccc2S1(=O)=O [Piroxicam, 4-hydroxy-2-methyl-N-2-pyridinyl-2H-1,2-benzothiazine-3-carboxamide 1,1-dioxide]
solubility (physchem; 0/100 ethanol/buffer): 40 µg/mL (≈ 121 µM)
solubility (physchem; 10/90 ethanol/buffer): 190 µg/mL (≈ 573 µM)
solubility (physchem; 20/80 ethanol/buffer): 460 µg/mL (≈ 1390 µM)
solubility (physchem; 30/70 ethanol/buffer): 710 µg/mL (≈ 2140 µM)
solubility (physchem; 40/60 ethanol/buffer): 1200 µg/mL (≈ 3620 µM)
solubility (physchem; 50/50 ethanol/buffer): 1500 µg/mL (≈ 4530 µM)
solubility (physchem; 100/0 ethanol/buffer): 1200 µg/mL (≈ 3620 µM)

Structure (SMILES): CCCCCC/C=C\CCCCCCCCCC(=O)O [cis-vaccenic, cis-11-octadecenoic acid]
DSC Tm (temperature of the transition maximum) [3]: 57.0 °C
flux of salicylic acid (in words) ([4]; difference relative to the controls and trans-vaccenic acid): even greater
Flux of Salicylic Acid ([4]; saturated salicylic acid in ethanol with […] of the fatty acid, 32° C.): 5.53 mg/cm^2 /hr

— patent US5196410A, “Transdermal flux enhancing compositions” (priority 1991, dated 1993)
